The text below walks through data of patent publication US20070274907A1 (priority 2004, published 2007).

Molecules are shown by their SMILES.

The nature of series [1]: Mitomycin binding kinetics to magnetically targetable carrier particle. Format: physicochemical. The settings on record: for initial mitomycin remaining in the binding supernatant: 5 minutes, 25 mg carrier, 0.755 mg/mL mitomycin. Here is the method: Mitomycin binding kinetics was measured at room temperature, and 40° C. […] The mixture was incubated at room temperature and at 40° C. for various time periods up to 60 minutes. The concentration of mitomycin remaining in the binding supernatant was obtained by filtering the sample at a predefined time point and then analyzing by HPLC to determine percentage bound.

Series [2] has as its system swine. Kind of series: 28 day toxicity study, pulmonary artery delivery with magnetic targeting. Here is the method: Each animal received a single dose of either control or test article at fixed concentrations by pulmonary artery infusion. […] The vehicle control group received 16 mL of vehicle.
A test article was administered as a single infusion to Groups 1 and 2 and as two infusions in all other groups. A 15 minute magnetic retention period separated the two infusions in Groups 3 and 4. The infusion rate was maintained at a flow rate of 2 mL/min. At the end of the 15 minute magnetic retention period, an angiogram was performed to verify arterial patency in the selected lung lobe. Assessment of toxicity following treatment included laboratory tests in which blood samples were collected for evaluation of serum chemistry, hematology and coagulation parameters prior to dosing (Day 0) and post-dosing on Days 1, 3, 7, 14, 21 and 28.

Series [3] relates to squamous cell carcinoma of the lung. As to conditions: 10 mg MMC intra-arterially, after 28 to 48 days, 9 patients; cited from earlier work.
For series [4], the system named is squamous cell carcinoma or adenocarcinoma. The settings on record: full series of 4 treatments, 10 mg MMC each, bronchial artery; cited from earlier work.
Series [5] can be described thus: Toxicokinetic analysis of plasma MMC after pulmonary artery infusion.
The subject of series [6] is bronchogenic carcinoma. The settings on record: 39 patients; cited from earlier work.

Broadly, the Cmax is the highest concentration seen after dosing. The Vd is the apparent volume that relates the amount in the body to the concentration in plasma or blood. Usually clearance stands for the volume of plasma or blood freed of the substance per unit of time. The term half-life denotes the time in which the quantity being followed falls by half. Turning to `CO[C@@]12[C@H](COC(N)=O)C3=C(C(=O)C(C)=C(N)C3=O)N1C[C@@H]1N[C@@H]12` [MMC, Mitomycin C], the “initial mitomycin remaining in the binding supernatant” value in series [1] (40° C) was 3%. Further, the “initial mitomycin remaining in the binding supernatant” value in series [1] (room temperature) was 2%. For the same molecule, in series [1] (both room temperature and 40° C), the “time to adsorption equilibrium” value is given as “less than 5 minutes”. Further, the “stability of mitomycin solution during incubation” value in series [1] (room temperature and 40° C, up to 60 minutes) was “stable at both temperatures”. Further, in series [2] (28 days post-dosing, not dose-related), the stomach ulceration entry is reported as “stomach ulceration was seen in some animals”. Moreover, in series [2] (MMC alone group, 4 mg MMC), the clinical signs result is reported as “transient diarrhea in two animals”. For the same molecule, the “embolization (post-treatment angiography)” value in series [2] (MMC control, 4 mg MMC) is given as “no embolization”. Besides, in series [3], the “complete remission of the tumor, patients” value is on record as 2 patients and the “partial remission, patients” value was 2 patients. Also, in series [4], the “patients with a 20% to 50% decrease of the tumor area” value is 3 patients and the “patients with a 50% decrease of the tumor area” value was 5 patients. In addition, in series [5] (Yorkshire, pig, in vivo, 4 mg), the concentration peaked (Cmax) at 178 ± 27.1 ng/mL, the Vd stood at 47.3 ± 13.2 L and the clearance was 618 ± 54 mL/min. This molecule also registered a half-life in series [5] (Yorkshire, pig, in vivo, 4 mg, β or λ t1/2, swine, 4 mg MMC) of 1.12 ± 0.278 h. The molecule also gave a half-life in series [5] (Yorkshire, swine, in vivo, distribution half-life, swine, summary over dose groups) of about 0.133 h. The half-life in series [5] (Yorkshire, swine, in vivo, elimination half-life, swine, summary over dose groups) was about 1.08 h. In addition, the AUC in series [5] (swine, 4 mg MMC, pulmonary artery infusion, plasma MMC) was 6507 ± 568 (ng/ml) × min. Moreover, in series [6], the neurologic complications entry is recorded as “No neurologic complications occurred” and the side effects entry is recorded as “insignificant”.
